From ChEMBL document CHEMBL1146102, “Synthesis and structure-activity relationship of 3,4'-bispyridinylethylenes: discovery of a potent 3-isoquinolinylpyridine inhibitor of protein kinase B (PKB/Akt) for the treatment of cancer” (Bioorg Med Chem Lett, 2006)

What was measured:
[1] = target: T1, RAC-alpha serine/threonine-protein kinase (Homo sapiens, UniProt P31749); test: Inhibition of Akt1 at 50 uM
[2] = target: Mitogen-activated protein kinase 1 (Homo sapiens, UniProt P28482); test: Inhibition of ERK2 at 10 uM ATP
[3] = target: T2, Serine/threonine-protein kinase Chk1 (Homo sapiens, UniProt O14757); test: Inhibition of Chk1 at 10 uM ATP
T2 sequence (O14757 whole entry): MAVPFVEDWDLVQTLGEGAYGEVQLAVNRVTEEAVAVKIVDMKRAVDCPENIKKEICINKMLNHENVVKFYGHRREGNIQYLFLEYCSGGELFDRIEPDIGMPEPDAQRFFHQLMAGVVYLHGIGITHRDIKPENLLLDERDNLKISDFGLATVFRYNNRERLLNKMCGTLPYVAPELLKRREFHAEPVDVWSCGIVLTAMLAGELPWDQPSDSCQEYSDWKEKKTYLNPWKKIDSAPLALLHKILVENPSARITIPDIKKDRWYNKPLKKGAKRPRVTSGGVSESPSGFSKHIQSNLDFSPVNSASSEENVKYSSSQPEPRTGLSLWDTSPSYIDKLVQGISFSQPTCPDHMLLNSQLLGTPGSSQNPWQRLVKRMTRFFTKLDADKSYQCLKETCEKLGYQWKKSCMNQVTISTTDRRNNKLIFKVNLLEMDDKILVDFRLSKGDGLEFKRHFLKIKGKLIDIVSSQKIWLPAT

[4] = target: MAP kinase-activated protein kinase 2 (Homo sapiens, UniProt P49137); test: Inhibition of MAPKAP2 at 10 uM ATP
[5] = target: Proto-oncogene tyrosine-protein kinase Src (Homo sapiens, UniProt P12931); test: Inhibition of SRC kinase at 1.0 mM ATP
[6] = target: Protein kinase C gamma type (Homo sapiens, UniProt P05129); test: Inhibition of PKCgamma at 10 uM ATP
[7] = target: T1, RAC-alpha serine/threonine-protein kinase; test: Activity against GSK3 phosphorylation in FL5.12-Akt1 cells; format: functional, cell-based
[8] = target: Cyclin-dependent kinase 1 (Homo sapiens, UniProt P06493); test: Inhibition of CDK1 at 10 uM ATP
[9] = target: RAC-gamma serine/threonine-protein kinase (Homo sapiens, UniProt Q9Y243); test: Inhibition of Akt3 at 10 uM ATP
[10] = target: Protein kinase C delta type (Homo sapiens, UniProt Q05655); test: Inhibition of PKCdelta at 10 uM ATP
Casein kinase II = Casein kinase II (Homo sapiens, UniProt P19784+P67870+P68400); test: Inhibition of CK2 at 10 uM ATP; format: protein-complex assay
[11] = target: Vascular endothelial growth factor receptor 3 (Homo sapiens, UniProt P35916); test: Inhibition of FLt4 at 1.0 mM ATP
Chain of Vascular endothelial growth factor receptor 3 (P35916 whole entry): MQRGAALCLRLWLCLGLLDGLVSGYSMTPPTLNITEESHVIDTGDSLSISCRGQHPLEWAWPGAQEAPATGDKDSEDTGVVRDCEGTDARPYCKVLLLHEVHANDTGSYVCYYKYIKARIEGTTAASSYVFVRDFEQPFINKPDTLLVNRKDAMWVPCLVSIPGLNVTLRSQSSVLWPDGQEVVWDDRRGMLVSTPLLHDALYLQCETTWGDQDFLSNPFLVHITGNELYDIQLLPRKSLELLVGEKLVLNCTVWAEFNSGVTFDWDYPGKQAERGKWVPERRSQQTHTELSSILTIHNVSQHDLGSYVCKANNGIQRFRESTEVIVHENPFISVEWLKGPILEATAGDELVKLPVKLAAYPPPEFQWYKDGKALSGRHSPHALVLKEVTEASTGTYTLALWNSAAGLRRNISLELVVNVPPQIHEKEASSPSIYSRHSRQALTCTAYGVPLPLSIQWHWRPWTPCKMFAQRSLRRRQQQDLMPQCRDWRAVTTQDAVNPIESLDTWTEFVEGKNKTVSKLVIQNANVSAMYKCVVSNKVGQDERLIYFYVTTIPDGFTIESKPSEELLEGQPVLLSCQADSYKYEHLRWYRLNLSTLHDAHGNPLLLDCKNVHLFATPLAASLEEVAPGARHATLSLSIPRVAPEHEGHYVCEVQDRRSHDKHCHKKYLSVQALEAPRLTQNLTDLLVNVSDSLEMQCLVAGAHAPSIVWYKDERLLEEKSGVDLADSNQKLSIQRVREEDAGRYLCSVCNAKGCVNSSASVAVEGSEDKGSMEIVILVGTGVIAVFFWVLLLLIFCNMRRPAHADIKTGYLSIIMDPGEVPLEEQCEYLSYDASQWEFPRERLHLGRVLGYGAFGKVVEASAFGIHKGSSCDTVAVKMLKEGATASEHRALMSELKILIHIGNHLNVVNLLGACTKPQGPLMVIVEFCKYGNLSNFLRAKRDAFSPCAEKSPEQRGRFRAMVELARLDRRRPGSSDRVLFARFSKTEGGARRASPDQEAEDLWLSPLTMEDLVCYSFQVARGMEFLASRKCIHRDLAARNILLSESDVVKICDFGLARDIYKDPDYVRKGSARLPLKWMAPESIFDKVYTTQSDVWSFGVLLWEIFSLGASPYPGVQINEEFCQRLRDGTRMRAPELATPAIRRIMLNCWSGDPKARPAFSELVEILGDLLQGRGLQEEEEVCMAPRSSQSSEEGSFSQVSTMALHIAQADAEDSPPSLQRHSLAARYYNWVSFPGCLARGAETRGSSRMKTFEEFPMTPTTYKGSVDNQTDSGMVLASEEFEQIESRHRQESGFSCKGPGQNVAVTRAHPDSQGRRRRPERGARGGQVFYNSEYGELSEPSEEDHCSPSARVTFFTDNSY

T1 sequence (P31749 whole entry): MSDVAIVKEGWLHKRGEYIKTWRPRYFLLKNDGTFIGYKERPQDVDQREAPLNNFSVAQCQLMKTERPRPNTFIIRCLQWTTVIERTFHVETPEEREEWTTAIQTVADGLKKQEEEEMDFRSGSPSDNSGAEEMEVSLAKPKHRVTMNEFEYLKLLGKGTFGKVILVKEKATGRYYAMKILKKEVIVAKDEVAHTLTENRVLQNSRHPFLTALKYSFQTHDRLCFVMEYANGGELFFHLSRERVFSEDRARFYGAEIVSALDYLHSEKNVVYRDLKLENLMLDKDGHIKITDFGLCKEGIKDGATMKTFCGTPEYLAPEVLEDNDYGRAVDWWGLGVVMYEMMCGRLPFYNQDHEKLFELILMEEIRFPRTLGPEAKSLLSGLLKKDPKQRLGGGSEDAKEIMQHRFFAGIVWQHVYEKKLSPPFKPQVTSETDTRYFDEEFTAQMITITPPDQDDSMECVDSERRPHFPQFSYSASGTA
Chain of Protein kinase C delta type (Q05655 whole entry): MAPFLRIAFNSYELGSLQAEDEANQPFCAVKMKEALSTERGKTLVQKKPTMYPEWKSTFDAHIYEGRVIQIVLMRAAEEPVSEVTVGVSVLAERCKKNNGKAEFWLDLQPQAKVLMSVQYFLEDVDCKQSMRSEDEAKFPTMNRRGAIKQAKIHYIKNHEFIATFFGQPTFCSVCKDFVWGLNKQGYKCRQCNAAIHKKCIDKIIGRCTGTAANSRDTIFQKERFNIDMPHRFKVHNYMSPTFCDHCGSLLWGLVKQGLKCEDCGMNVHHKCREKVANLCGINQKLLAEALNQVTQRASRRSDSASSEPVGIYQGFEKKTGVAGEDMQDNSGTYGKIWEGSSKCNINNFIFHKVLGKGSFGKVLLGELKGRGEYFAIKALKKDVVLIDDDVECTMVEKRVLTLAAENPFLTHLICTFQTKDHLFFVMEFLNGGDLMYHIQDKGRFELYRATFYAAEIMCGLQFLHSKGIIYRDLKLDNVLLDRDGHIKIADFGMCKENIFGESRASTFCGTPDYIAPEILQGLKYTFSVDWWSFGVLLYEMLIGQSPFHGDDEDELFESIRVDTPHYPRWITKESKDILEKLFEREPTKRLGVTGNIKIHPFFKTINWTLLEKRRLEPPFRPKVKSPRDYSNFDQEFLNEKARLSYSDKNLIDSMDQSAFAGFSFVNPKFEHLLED
Chain of Mitogen-activated protein kinase 1 (P28482 whole entry): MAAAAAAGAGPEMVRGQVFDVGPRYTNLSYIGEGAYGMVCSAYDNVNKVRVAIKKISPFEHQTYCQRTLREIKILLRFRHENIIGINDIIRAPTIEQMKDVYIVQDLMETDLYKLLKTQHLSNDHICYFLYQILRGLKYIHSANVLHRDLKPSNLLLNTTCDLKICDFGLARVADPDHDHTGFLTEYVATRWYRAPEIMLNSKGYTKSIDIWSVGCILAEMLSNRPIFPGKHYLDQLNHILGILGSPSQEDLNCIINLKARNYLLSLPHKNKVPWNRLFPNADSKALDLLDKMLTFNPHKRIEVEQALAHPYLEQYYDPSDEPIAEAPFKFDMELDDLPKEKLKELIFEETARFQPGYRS
Chain of Cyclin-dependent kinase 1 (P06493 whole entry): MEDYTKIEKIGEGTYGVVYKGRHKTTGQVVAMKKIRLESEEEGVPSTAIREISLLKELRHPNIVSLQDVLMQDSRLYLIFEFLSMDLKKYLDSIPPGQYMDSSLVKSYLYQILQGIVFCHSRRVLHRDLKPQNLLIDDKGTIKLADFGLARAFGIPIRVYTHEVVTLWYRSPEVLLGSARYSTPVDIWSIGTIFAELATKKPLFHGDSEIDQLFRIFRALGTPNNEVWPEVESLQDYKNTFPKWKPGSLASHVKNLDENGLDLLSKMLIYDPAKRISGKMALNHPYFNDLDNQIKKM
Chain of MAP kinase-activated protein kinase 2 (P49137 whole entry): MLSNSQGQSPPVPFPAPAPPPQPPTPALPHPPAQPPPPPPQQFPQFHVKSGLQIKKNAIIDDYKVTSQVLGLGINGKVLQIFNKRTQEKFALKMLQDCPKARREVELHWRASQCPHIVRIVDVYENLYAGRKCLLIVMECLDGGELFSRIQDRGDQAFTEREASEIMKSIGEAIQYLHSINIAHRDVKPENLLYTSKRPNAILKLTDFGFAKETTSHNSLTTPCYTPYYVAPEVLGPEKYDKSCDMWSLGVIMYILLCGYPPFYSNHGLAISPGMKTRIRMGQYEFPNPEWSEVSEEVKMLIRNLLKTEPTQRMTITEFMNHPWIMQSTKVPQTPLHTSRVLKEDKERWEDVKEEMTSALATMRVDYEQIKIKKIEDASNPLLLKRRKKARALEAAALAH
Chain of Proto-oncogene tyrosine-protein kinase Src (P12931 2-536 limits assumed): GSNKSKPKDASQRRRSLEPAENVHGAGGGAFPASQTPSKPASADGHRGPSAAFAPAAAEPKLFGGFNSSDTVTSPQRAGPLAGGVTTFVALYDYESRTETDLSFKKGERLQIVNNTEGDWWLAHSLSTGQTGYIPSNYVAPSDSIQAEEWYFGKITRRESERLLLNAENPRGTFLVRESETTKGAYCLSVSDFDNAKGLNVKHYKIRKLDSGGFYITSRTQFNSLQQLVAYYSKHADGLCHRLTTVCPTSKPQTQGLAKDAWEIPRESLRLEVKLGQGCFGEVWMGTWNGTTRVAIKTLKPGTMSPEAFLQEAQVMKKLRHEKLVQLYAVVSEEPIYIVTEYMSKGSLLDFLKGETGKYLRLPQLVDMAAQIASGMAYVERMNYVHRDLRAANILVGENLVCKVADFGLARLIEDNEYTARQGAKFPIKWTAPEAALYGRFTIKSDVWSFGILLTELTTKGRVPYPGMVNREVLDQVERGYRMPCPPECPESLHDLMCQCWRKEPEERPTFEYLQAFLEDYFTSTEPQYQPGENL

With `N[C@H](COc1cncc(-c2ccc(S(N)(=O)=O)cc2)c1)Cc1c[nH]c2ccccc12` the inhibition [1] was 12%.

Molecule `N=C(NO)c1ccc(-c2cncc(OC[C@@H](N)Cc3c[nH]c4ccccc34)c2)cc1` has an inhibition [1] of 48%.

In the case of `N[C@H](COc1cncc(-c2cccc(S(N)(=O)=O)c2)c1)Cc1c[nH]c2ccccc12`, the inhibition [1] is reported as 0%.

For `N[C@H](COc1cncc(-c2ccc([N+](=O)[O-])cc2)c1)Cc1c[nH]c2ccccc12`, the inhibition [1] was 13%.

With `N[C@H](COc1cncc(NCc2ccncc2)c1)Cc1ccccc1` the inhibition [1] was 26%.

Molecule `CC(=O)NCc1ccc(-c2cncc(OC[C@@H](N)Cc3c[nH]c4ccccc34)c2)cc1` has an inhibition [1] of 3%.

In the case of `N=C(N)c1ccc(-c2cncc(OC[C@@H](N)Cc3c[nH]c4ccccc34)c2)cc1`, the inhibition [1] is reported as 41%.

`N[C@H](COc1cncc(-c2ccccc2-c2ccncc2)c1)Cc1c[nH]c2ccccc12` gave an inhibition [1] of 10%.

In the case of `N[C@H](COc1cncc(NC(=O)c2cccnc2)c1)Cc1ccccc1`, the inhibition [1] is reported as 26%.

With `N[C@H](COc1cncc(-c2ccc3cnccc3c2)c1)Cc1c[nH]c2ccccc12` the IC50 [2] was 0.91 µM, the IC50 [3] was 4.2 µM and the IC50 [4] was > 50 µM. For the same molecule, the IC50 [5] was > 50 µM, the IC50 [6] was 0.27 µM and the EC50 [7] was 1.5 µM. The IC50 [8] was 0.1 µM, the IC50 [9] was 0.035 µM and the IC50 [10] was 6.1 µM. For the same molecule, the IC50 (Casein kinase II) was 11.8 µM and the IC50 [11] was > 50 µM.

Work on `N[C@H](COc1cncc(NCc2cccnc2)c1)Cc1ccccc1` yielded an inhibition [1] of 41%.
